Test [1] addresses Cyclin-dependent kinase 2/cyclin E1 (Homo sapiens, UniProt P24941). As to the kind of experiment: Inhibition of N-terminal GST-tagged full-length human CDK2 (1 to 298 residues)/Cyclin E (1 to 410 residues) expressed in baculovirus expression system using histone H1 as susbtrate after 90 mins by Kinase-Glo luminescence assay.
The target in test [2] is T1, CDC7/DBF4 (Cell division cycle 7-related protein kinase/Activator of S phase kinase) (Homo sapiens, UniProt O00311). Nature of the test: Inhibition of N-terminal GST-fused full-length human CDC7 (1 to 574 end residues)/DBF4 (1 to 674 residues) expressed in baculovirus expression system using MCM2 as substrate preincubated with enzyme for 10 mins prior to 1 uM ATP addition by HTRF transcreener ADP assay. (In general: TR-FRET usually uses a lanthanide donor and a delayed reading to cut background.)

The species named for test [3] is Homo sapiens. Nature of the test: Selectivity index, ratio of IC50 N-terminal GST-tagged human ROCK1 catalytic domain (1 to 477 residues) expressed in baculovirus expression system to IC50 for N-terminal GST-fused full-length human CDC7 (1 to 574 end residues)/DBF4 (1 to 674 residues) expressed in baculovirus expression system.
Test [4] deals with Rho-associated protein kinase 1 (Homo sapiens, UniProt Q13464). As to the kind of experiment: Inhibition of N-terminal GST-tagged human ROCK1 catalytic domain (1 to 477 residues) expressed in baculovirus expression system using biotin-STK-substrate 2 as substrate preincubated with enzyme for 5 mins followed by ATP addition and measured after 2 hrs by TR-FRET assay.
The species entered for test [5] is Homo sapiens. As to the kind of experiment: Selectivity index, ratio of IC50 for N-terminal GST-tagged full-length human CDK2 (1 to 298 residues)/Cyclin E (1 to 410 residues) expressed in baculovirus expression system to IC50 for N-terminal GST-fused full-length human CDC7 (1 to 574 end residues)/DBF4 (1 to 674 residues) expressed in baculovirus expression system.

Test [6] deals with T1, CDC7/DBF4 (Cell division cycle 7-related protein kinase/Activator of S phase kinase). As to the kind of experiment: Inhibition of N-terminal GST-fused full-length human CDC7 (1 to 574 end residues)/DBF4 (1 to 674 residues) expressed in baculovirus expression system using MCM2 as substrate in presence of 50 uM ATP by HTRF transcreener ADP assay.
Test [7] has the same target. Nature of the test: Inhibition of N-terminal GST-fused full-length human CDC7 (1 to 574 end residues)/DBF4 (1 to 674 residues) expressed in baculovirus expression system using MCM2 as substrate preincubated with enzyme for 60 mins prior to 50 uM ATP addition by HTRF transcreener ADP assay.
Test [8] concerns the target Cell division cycle 7-related protein kinase (Homo sapiens, UniProt O00311). As to the kind of experiment: Inhibition of CDC7 in human HeLa cells assessed as inhibition of MCM2 phosphorylation at Ser40 residue in human HeLa cells after 7 hrs by Western blot analysis. Format: cell-based. In general terms: Immunoblotting shows a protein as a band on a membrane.
Test [9] relates to COLO 205. Nature of the test: Antiproliferative activity against human COLO205 cells assessed as reduction in cell growth after 3 days by CellTiter-Glo luminescence assay. Format: functional, cell-based. Conditions: COLO 205, 72 h. In general terms: ATP-based viability assays read luminescence as a measure of living cells.

As usually defined, the IC50 is the point on the concentration scale where inhibition reaches its midpoint. In the case of `Cc1n[nH]cc1-c1cc2nc([C@@H]3CCCCCN3)[nH]c(=O)c2s1`, the IC50 was determined as 2800 nM in test [1], 1.2 nM in [2] and 450 nM in test [4]. Moreover, the Ratio IC50 in test [3] came to 380; in test [5], 2300.
Turning to `Cc1n[nH]cc1-c1cc2nc([C@@H]3CCN3)[nH]c(=O)c2s1`, the IC50 in [1] stood at 6900 nM; in test [2], 2.1 nM; in [4] it was 760 nM. Further, the Ratio IC50 in test [3] was determined as 360; in test [5], 3300.
Consider `Cc1n[nH]cc1-c1cc2nc([C@H]3CCCCN3)[nH]c(=O)c2s1`, for which the half-inhibitory concentration (IC50) in test [1] amounted to 4800 nM; in [2], 0.91 nM; in [4], 370 nM.
`Cc1n[nH]cc1-c1cc2nc([C@@H]3CCCN3C)[nH]c(=O)c2s1`: the IC50 in test [1] is greater than 10000 nM; in test [2], 1.9 nM; in [4], 160 nM. For the same compound, the results for the Ratio IC50 in [3] and in [5] were 84 and greater than 5300, respectively.
The EC50 is the midpoint of the concentration-response curve. For the compound `O=c1[nH]c([C@@H]2CCCCN2)nc2cc(-c3c[nH]nc3C(F)(F)F)sc12`, the IC50 is 9500 nM in [1]; 72 nM in test [6]; 0.43 nM in test [2]; 0.72 nM in test [7]; 41 nM in test [8]; 530 nM in test [4]. In test [9], the EC50 is 230 nM.
On to `Cc1n[nH]cc1-c1cc2nc(C34CC(CN3)C4)[nH]c(=O)c2s1`, for which the IC50 in test [1] came to 2700 nM; in test [6] it was 77 nM; in test [2], 0.16 nM; in test [7], 2.1 nM; in test [8], 130 nM; in [4] it was 220 nM. Besides, the EC50 in test [9] was 750 nM.
As for `Cc1n[nH]cc1-c1cc2nc([C@@H]3C[C@H](C)CN3)[nH]c(=O)c2s1`, the IC50 was 3700 nM in [1], 1.3 nM in test [2] and 630 nM in test [4]. Also, the values for the Ratio IC50 in test [3] and in [5] were 480 and 2800, respectively.
The like results for `Cc1n[nH]cc1-c1cc2nc([C@@H]3CC=CCN3)[nH]c(=O)c2s1` were, in that order, 4700 nM, 0.53 nM, 340 nM, 640 and 8900.
For `Cc1n[nH]cc1-c1cc2nc([C@]3(C)CCCN3)[nH]c(=O)c2s1` the same measures were 9900 nM, 9.8 nM, 270 nM, 28 and 1000.
In the case of `Cc1n[nH]cc1-c1cc2nc([C@H]3CC4CCN3CC4)[nH]c(=O)c2s1`, the half-inhibitory concentration (IC50) is greater than 10000 nM in [1], 1 nM in test [2] and 460 nM in test [4].
In the case of `Cc1n[nH]cc1-c1cc2nc([C@H]3NCC[C@@H]3C)[nH]c(=O)c2s1`, the IC50 was 620 nM in test [1], 0.61 nM in [2] and 130 nM in test [4]. Moreover, the Ratio IC50 was determined as 210 in [3] and 1000 in [5].
Regarding `Cc1n[nH]cc1-c1cc2nc([C@@H]3CCC(C)(C)N3)[nH]c(=O)c2s1`, the IC50 was greater than 10000 nM in test [1], 1.9 nM in test [2] and 1500 nM in test [4]. Also, the Ratio IC50 is 790 in test [3] and greater than 5300 in [5].
The like results for `Cc1n[nH]cc1-c1cc2nc([C@@H]3CCCN3)[nH]c(=O)c2s1` were, in that order, 3900 nM, 0.71 nM, 360 nM, 510 and 5500.

These data come from ChEMBL document CHEMBL4321874 (J Med Chem, 2020).
